US10793574B2, “TYK2 inhibitors and uses thereof” (Nimbus Lakshmi, Inc., priority 2016, dated 2020)

Columns and labels:
TYK2 JH1 kinase = TYK2 JH1 kinase (Homo sapiens (Human), UniProt P29597); assay: Tyk2 radioactive kinase assay; assay type: biochemical; settings: active kinase assay, ATP 10 μM
Description: (§1) Peptide substrate, [KKSRGDYMTMQIG], (20 μM) is prepared in reaction buffer (20 mM Hepes pH 7.5, 10 mM MgCl2, 1 mM EGTA, 0.02% Brij35, 0.02 mg/mL BSA, 0.1 mM […], 2 mM DTT, 1% DMSO. TYK2 (Invitrogen) kinase is added, followed by compounds in DMSO. 33PATP is added to initiate the reaction in ATP at 10 μM. Kinase reaction is incubated for 120 min at room temp and reactions are spotted onto P81 ion exchange paper (Whatman #3698-915), and then washed extensively in 0.75% phosphoric acid, prior to reading the radioactivity counts. For JAK2 (Invitrogen) kinase assay the peptide substrate poly[Glu:Tyr](4:1), 0.2 mg/ml is used, in the reaction carried out the same as for TYK2.

JAK2 JH1 kinase = JAK2 JH1 kinase (Homo sapiens (Human), UniProt O60674); assay: JAK2 radioactive kinase assay; assay type: biochemical; settings: active kinase assay, ATP 10 μM
Description: as §1

TYK2 JH1 kinase, sequence (P29597 833-1187): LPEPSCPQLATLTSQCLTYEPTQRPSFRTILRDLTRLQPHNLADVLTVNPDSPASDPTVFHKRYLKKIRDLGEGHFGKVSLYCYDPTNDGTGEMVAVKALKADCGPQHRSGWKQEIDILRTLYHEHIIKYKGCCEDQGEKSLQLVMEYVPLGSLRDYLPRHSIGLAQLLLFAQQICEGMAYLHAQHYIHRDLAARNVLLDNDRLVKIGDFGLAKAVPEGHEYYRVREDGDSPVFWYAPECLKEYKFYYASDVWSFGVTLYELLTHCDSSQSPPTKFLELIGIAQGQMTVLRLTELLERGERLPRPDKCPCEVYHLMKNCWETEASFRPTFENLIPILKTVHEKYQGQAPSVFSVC
JAK2 JH1 kinase, sequence (O60674 808-1132): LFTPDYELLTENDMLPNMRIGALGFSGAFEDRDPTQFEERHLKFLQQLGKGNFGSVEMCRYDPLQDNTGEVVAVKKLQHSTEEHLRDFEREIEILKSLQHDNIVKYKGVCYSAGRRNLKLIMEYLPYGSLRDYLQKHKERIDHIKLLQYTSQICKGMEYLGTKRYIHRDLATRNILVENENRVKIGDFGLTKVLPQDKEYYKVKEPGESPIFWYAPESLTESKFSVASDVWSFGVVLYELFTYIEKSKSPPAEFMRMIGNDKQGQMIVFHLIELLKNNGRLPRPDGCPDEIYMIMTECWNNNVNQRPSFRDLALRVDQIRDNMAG

Structure (SMILES)	inhibitory activity against TYK2 JH1 kinase function (TYK2 JH1 kinase)	inhibitory activity against JAK2 JH1 kinase function (JAK2 JH1 kinase)
COc1c(Nc2cc(NC(=O)C3CC3)nc3[nH]n(C)c(=O)c23)cccc1-c1nnn(C)n1 [Compound I-1, N-(4-((2-methoxy-3-(2-methyl-2H-tetrazol-5-yl)phenyl)amino)-2-methyl-3-oxo-2,3-dihydro-1H-pyrazolo[3,4-b]pyridin-6-yl)cyclopropanecarboxamide]	no detectable inhibitory activity	
COCc1ccnc(Nc2cc(Nc3cccc(-c4nnn(C)n4)c3OC)c3c(=O)n(C)[nH]c3n2)c1 [Compound I-2, 4-((2-methoxy-3-(2-methyl-2H-tetrazol-5-yl)phenyl)amino)-6-((4-(methoxymethyl)pyridin-2-yl)amino)-2-methyl-1,2-dihydro-3H-pyrazolo[3,4-b]pyridin-3-one]	no detectable inhibitory activity	
COc1c(Nc2cc(NC(=O)C3CC3)ncc2-c2ncc(Cl)s2)cccc1-c1nnn(C)n1 [VIII-1, N-(5-(5-chlorothiazol-2-yl)-4-((2-methoxy-3-(2-methyl-2H-tetrazol-5-yl)phenyl)amino)pyridin-2-yl)cyclopropanecarboxamide]	no detectable inhibitory activity	no detectable inhibitory activity
COc1c(Nc2cc(NC(=O)C3CC3)ncc2-c2ncc(F)s2)cccc1-c1nnn(C)n1 [VIII-2, N-(5-(5-fluorothiazol-2-yl)-4-((2-methoxy-3-(2-methyl-2H-tetrazol-5-yl)phenyl)amino)pyridin-2-yl)cyclopropanecarboxamide]	no detectable inhibitory activity	no detectable inhibitory activity
COc1c(Nc2cc(NC(=O)C3CC3)ncc2-c2nnc(C(F)(F)F)o2)cccc1-c1ncn(C)n1 [VIII-3, N-(4-((2-methoxy-3-(1-methyl-1H-1,2,4-triazol-3-yl)phenyl)amino)-5-(5-(trifluoromethyl)-1,3,4-oxadiazol-2-yl)pyridin-2-yl)cyclopropanecarboxamide]	no detectable inhibitory activity	no detectable inhibitory activity
COC(=O)c1nnc(-c2cnc(NC(=O)C3CC3)cc2Nc2cccc(-c3ncn(C)n3)c2OC)o1 [VIII-4, methyl 5-(6-(cyclopropanecarboxamido)-4-((2-methoxy-3-(1-methyl-1H-1,2,4-triazol-3-yl)phenyl)amino)pyridin-3-yl)-1,3,4-oxadiazole-2-carboxylate]	no detectable inhibitory activity	no detectable inhibitory activity
